Assay results taken from the Deep4Chem optical property database.
Each block holds one compound with its values, some of them ahead of it.

Assay: solvent given as SMILES
[1] = in c1ccc2c(c1)c1ccccc1n2-c1ccc(-c2ccc(-n3c4ccccc4c4ccccc43)cc2)cc1

SMILES: COc1ccc(-c2nc(C)cc(-c3ccc(-n4c5ccccc5c5ccccc54)cc3)n2)cc1
fluorescence lifetime (in C1CCOC1): 3.76 ns
fluorescence lifetime (in CN(C)C=O): 6.51 ns
fluorescence lifetime (in Cc1ccccc1): 1.87 ns
fluorescence lifetime (in ClC(Cl)Cl): 3.91 ns

SMILES: Fc1c(F)c(-n2c3ccccc3c3ccccc32)c(F)c(-n2c3ccccc3c3ccccc32)c1-c1nnc(-c2ccccc2)o1
fluorescence lifetime (in Cc1ccccc1): 4.8 ns

SMILES: CC(C)(C)c1ccc2c(c1)[nH]c1c3[nH]c4cc(C(C)(C)C)ccc4c3c3nsnc3c21
fluorescence lifetime (in CN(C)C=O): 2.29 ns
fluorescence lifetime (in Cc1ccccc1): 1.5 ns
fluorescence lifetime (in ClCCl): 2.61 ns

SMILES: [NH-]c1cc(N)cc(-c2nc3ccccc3s2)c1
fluorescence lifetime (in O): 3.98 ns

SMILES: Nc1ccccn1
fluorescence lifetime (in C1CCCCC1): 24.2 ns
fluorescence lifetime (in CC#N): 5 ns
fluorescence lifetime (in CCO): 5.1 ns
fluorescence lifetime (in CCOCC): 10.8 ns
fluorescence lifetime (in O): 24.4 ns

SMILES: C(=C\N1CCCC1)/c1nc2ccccc2nc1-c1ccccc1
fluorescence lifetime (in C1CCCCC1): 2.3 ns
fluorescence lifetime (in C1CCOC1): 8.42 ns
fluorescence lifetime (in CC#N): 5.28 ns
fluorescence lifetime (in CC(C)=O): 6.88 ns
fluorescence lifetime (in CCO): 0.49 ns
fluorescence lifetime (in CO): 0.15 ns
fluorescence lifetime (in CS(C)=O): 2.97 ns
fluorescence lifetime (in Cc1ccccc1): 6.52 ns
fluorescence lifetime (in ClCCl): 10.2 ns

SMILES: N#Cc1cc(N2c3ccccc3Sc3ccccc32)c(N2c3ccccc3Sc3ccccc32)cc1C#N
fluorescence lifetime [1]: 48.2 ns

SMILES: CC1(C)c2ccccc2N(c2c(F)cc(-c3nnc(-c4ccccc4)o3)cc2F)c2ccccc21
fluorescence lifetime (in Cc1ccccc1): 8.8 ns

SMILES: C#Cc1ccc2ccc3cccc4ccc1c2c34
fluorescence lifetime (in C1CCCCC1): 14.9 ns
fluorescence lifetime (in CC#N): 13.4 ns
fluorescence lifetime (in CO): 17.8 ns
fluorescence lifetime (in ClCCl): 20.5 ns

SMILES: c1ccc(-c2ccc(-c3nc(-n4c5ccccc5c5ccc6c7ccccc7n(-c7ccccc7)c6c54)nc(-n4c5ccccc5c5ccc6c7ccccc7n(-c7ccccc7)c6c54)n3)cc2)cc1
fluorescence lifetime (in Cc1ccccc1): 8.7 ns

SMILES: COc1ccc(C2=C(c3ccccc3)C(c3ccccc3)=[N+]3C2=Nc2c(-c4ccc(OC)cc4)c(-c4ccccc4)c(-c4ccccc4)n2[B-]3(F)F)cc1
fluorescence lifetime (in Cc1ccccc1): 0.26 ns

SMILES: CC1=CC(c2ccc3cc(N(C)C)ccc3c2)=[O+][B-](F)(F)O1
fluorescence lifetime (in C1CCOC1): 3.56 ns
fluorescence lifetime (in CC#N): 1.02 ns
fluorescence lifetime (in CC(C)=O): 2.72 ns
fluorescence lifetime (in CS(C)=O): 1.47 ns
fluorescence lifetime (in Cc1ccccc1): 4.08 ns
fluorescence lifetime (in ClC(Cl)Cl): 3.46 ns
fluorescence lifetime (in ClCCl): 3.69 ns

SMILES: FC(F)(F)c1cc2n(n1)[B-]1(c3ccccc3Oc3ccccc31)[n+]1ccc3ccccc3c1-2
fluorescence lifetime (in C1CCCCC1): 1.79 ns
fluorescence lifetime (in Cc1ccccc1): 1.85 ns
fluorescence lifetime (in ClCCl): 2.45 ns

SMILES: Cc1ccc2c(c1)c1cc(C)ccc1n2-c1c(-n2c3ccccc3c3ccccc32)c(C#N)c(-n2c3ccccc3c3ccccc32)c(-n2c3ccc(C)cc3c3cc(C)ccc32)c1-n1c2ccccc2c2ccccc21
fluorescence lifetime (in Cc1ccccc1): 5.9 ns

SMILES: CCOC(=O)C(C(=O)OCC)C1=[N+]2C(=C(c3ccc(C)cc3)c3ccc(C(C(=O)OCC)C(=O)OCC)n3[B-]2(F)F)C=C1
fluorescence lifetime (in C1CCCCC1): 3.15 ns
fluorescence lifetime (in C1CCOC1): 2.82 ns
fluorescence lifetime (in CCOC(C)=O): 2.5 ns
fluorescence lifetime (in CO): 2.18 ns
fluorescence lifetime (in Cc1ccccc1): 4.14 ns
fluorescence lifetime (in ClC(Cl)Cl): 3.62 ns

More lines, main results first:

fluorescence lifetime (in ClCCl): 3.57 ns
SMILES: c1ccc(-p2c3ccccc3c3sc4ccccc4c32)cc1 (configuration not stated)

fluorescence lifetime (in C1CCOC1): 1.9 ns
SMILES: CCC1(CC)c2ccccc2-c2c1c1c(c3c2C(CC)(CC)c2cc(N(c4ccccc4)c4ccccc4)ccc2-3)C(CC)(CC)c2cc(N(c3ccccc3)c3ccccc3)ccc2-1

fluorescence lifetime (in ClCCl): 4.82 ns
SMILES: CCOC(=O)COc1ccc(/C=C/C2=C3c4ccccc4C(c4[nH]c(C)cc4C)=[N+]3[B-](F)(F)n3c(/C=C/c4ccc(OCC(=O)OCC)cc4)cc(C)c32)cc1

fluorescence lifetime (in CN(C)C=O): 1.01 ns
SMILES: CCCCCCCCC1(CCCCCCCC)c2cc(-c3ccc([Si](C)(C)C)cc3)ccc2-c2ccc(-c3ccc([Si](C)(C)C)cc3)cc21

fluorescence lifetime (in CC1CCCCC1): 1.01 ns
fluorescence lifetime (in CC#N): 1.2 ns
fluorescence lifetime (in CO): 1.28 ns
SMILES: COC(=O)C(NC(=O)OC(C)(C)C)c1ccc2oc(-c3cc(OC)c(OC)c(OC)c3)nc2c1 (configuration not stated)

fluorescence lifetime (in CO): 22 ns
SMILES: CCOC(=O)CCCCCn1c2ccc(C)cc2c(=O)c2cc3c(cc21)c(=O)c1cc(C)ccc1n3CCCCCC(=O)OCC

fluorescence lifetime (in ClCCl): 3.37 ns
SMILES: COC(=O)c1ccc(Oc2ccc3c4c(cccc24)C(=O)N(c2c(C(C)C)cccc2C(C)C)C3=O)cc1

fluorescence lifetime (in ClCCl): 1.6 ns
SMILES: COc1ccc2cc(/C=C/C3=C4CCc5ccccc5C4=[O+][B-](F)(F)O3)ccc2c1

fluorescence lifetime (in C1CCOC1): 13.2 ns
fluorescence lifetime (in CC#N): 5.2 ns
fluorescence lifetime (in CCCCCC): 18.9 ns
SMILES: CC(O)CC1=N/C(=C\c2cccc(N(C)C)c2)C(=O)N1C (configuration not stated)

fluorescence lifetime (in CS(C)=O): 0.27 ns
SMILES: COc1ccc(-c2nc3c(c4c2-c2ccc(C#N)cc2CC4)-c2ccc(C#N)cc2CC3)cc1

fluorescence lifetime (in ClCCl): 6.19 ns
SMILES: CCCCCCCCCCCCN1C(=O)c2c(c3ccc4cc(-c5ccc(-c6ccccc6)cc5)c(OC)cc4c3c3c2ccc2cc(-c4ccc(-c5ccccc5)cc4)c(OC)cc23)C1=O

fluorescence lifetime (in C1CCCCC1): 10 ns
SMILES: COc1ccc([Si](C)(C)C)c2ccccc12

fluorescence lifetime (in ClC(Cl)Cl): 11.2 ns
SMILES: CCCCCCN1C(=O)c2cc(-c3ccc(-n4c5ccccc5c5ccccc54)cc3)c(-c3ccc(-n4c5ccccc5c5ccccc54)cc3)cc2C1=O
fluorescence lifetime [1]: 10 ns

fluorescence lifetime (in C1CCOC1): 6.9 ns
SMILES: C[Si](C)(C)c1ccc(-c2ccc(-c3ccc(-c4ccc(-c5ccc([Si](C)(C)C)cc5)s4)c4nsnc34)s2)cc1

fluorescence lifetime (in C1CCOC1): 7.52 ns
fluorescence lifetime (in CN1CCCC1=O): 1.62 ns
fluorescence lifetime (in CN(C)C=O): 0.05 ns
SMILES: O=C1c2ccc3c4c(Oc5ccccc5)cc5c6c(ccc(c7c(Oc8ccccc8)cc(c2c37)C(=O)N1c1ccc(O)cc1)c64)C(=O)N(c1ccc(O)cc1)C5=O

fluorescence lifetime (in ClCCl): 13.4 ns
SMILES: Cc1cc(-c2cccc3ccccc23)cc(C)[o+]1

fluorescence lifetime (in C1COCCO1): 2.8 ns
SMILES: CCC12C(=C3C(=C4c5ccc(-c6ccc(C(C)=O)cc6)cc5S(=O)(=O)C41CC)C(F)(F)C(F)(F)C3(F)F)c1ccc(-c3ccc(C(C)=O)cc3)cc1S2(=O)=O (configuration not stated)
